Results on two compounds are retold here after patent US20070213311A1, “Modulators of 11-beta hydroxyl steroid dehydrogenase type 1, pharmaceutical compositions thereof, and methods of using the same” (priority 2006, published 2007).

A value given as a limit tells only on which side of the number the result lay.

The target of experiment [1] is T1, full-length human 11βHSD1 (Homo sapiens, UniProt P28845).
T1 construct: made in house; host or cells: HEK-293 transient transfectants; clarified lysate, not purified
Briefly: Enzymatic assay of 11βHSD1 (Scintillation Proximity Assay, clarified lysates of HEK-293 transfectants). It is filed as biochemical. The settings on record: SPA, 25 nM 3H-cortisone, 400 μM NADPH, 37° C. for one hour. As to the method:
Enzymatic Assay of 11βHSD1
All in vitro assays were performed with clarified lysates as the source of 11βHSD1 activity. HEK-293 transient transfectants expressing an epitope-tagged version of full-length human 11βHSD1 were harvested by centrifugation. Roughly 2×10^7 cells were resuspended in 40 mL of lysis buffer (25 mM Tris-HCl, pH 7.5, 0.1 M NaCl, 1 mM MgCl2 and 250 mM sucrose) and lysed in a microfluidizer. Lysates were clarified by centrifugation and the supernatants were aliquoted and frozen.
Inhibition of 11βHSD1 by test compounds was assessed in vitro by a Scintillation Proximity Assay (SPA). Dry test compounds were dissolved at 5 mM in DMSO. These were diluted in DMSO to suitable concentrations for the SPA assay. 0.8 μL of 2-fold serial dilutions of compounds were dotted on 384 well plates in DMSO such that 3 logs of compound concentration were covered. 20 μL of clarified lysate was added to each well. Reactions were initiated by addition of 20 μL of substrate-cofactor mix in assay buffer (25 mM Tris-HCl, pH 7.5, 0.1 M NaCl, 1 mM MgCl2) to final concentrations of 400 μM NADPH, 25 nM ^3H-cortisone and 0.007% Triton X-100. Plates were incubated at 37° C. for one hour. […] Quenched plates were incubated for a minimum of 30 minutes at RT prior to reading on a Topcount scintillation counter. […]

In another experiment the target is T2, 11βHSD1 in the eye (Homo sapiens, UniProt P28845).
T2 construct: 11βHSD1 has been localized to NPE cells; host or cells: eye of healthy volunteers, in vivo
The settings on record: healthy volunteers, after seven days of carbenoxolone treatment; cited from earlier work.

T1 sequence (P28845 whole entry): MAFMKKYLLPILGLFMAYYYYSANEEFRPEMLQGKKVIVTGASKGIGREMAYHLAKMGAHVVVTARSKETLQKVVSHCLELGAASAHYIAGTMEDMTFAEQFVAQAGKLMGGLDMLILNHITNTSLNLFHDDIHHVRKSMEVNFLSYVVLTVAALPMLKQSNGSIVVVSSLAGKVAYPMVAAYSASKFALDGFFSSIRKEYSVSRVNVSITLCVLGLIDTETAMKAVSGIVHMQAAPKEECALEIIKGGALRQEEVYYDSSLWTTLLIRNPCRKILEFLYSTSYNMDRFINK
T2 sequence (P28845 whole entry): as above

One may read the IC50 as the concentration that gives 50% inhibition. Low readings indicate inhibition by little substance, high ones a need for much substance. In experiment [1], `O=C1OC2(CCN(C(=O)C(O)c3ccc(Br)cc3F)C2)c2ccccc21` (centres unmarked) [Example 1, 1′-[(4-Bromo-2-fluorophenyl)(hydroxy)acetyl]-3H-spiro[2-benzofuran-1,3′-pyrrolidin]-3-one] had a 50% inhibitory concentration (IC50) of less than 1000 nM.

Regarding `CC1(C)[C@@H](OC(=O)CCC(=O)O)CC[C@]2(C)[C@H]3C(=O)C=C4[C@@H]5C[C@@](C)(C(=O)O)CC[C@]5(C)CC[C@@]4(C)[C@]3(C)CC[C@@H]12` [carbenoxolone], the “IOP was reduced by” value at 11βHSD1 in the eye was 18%.
